Reference: the supplement of paper PMC10307832

Experiments:
Experiment in all cases: relative viability (nuclei count vs DMSO), 5 days (fraction); higher = more cells survive
[1] = compound: COc1cc2c(Oc3ccc4[nH]c(C)cc4c3F)ncnc2cc1OCCCN1CCCC1 [Cediranib] + CC(C)C[C@H](NC(=O)[C@H](Cc1ccccc1)NC(=O)c1cnccn1)B(O)O [Bortezomib] (partner 0.002 µM)
Outline: (§1)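 Lung cancer cell lines, seeded in 1536-well plates, were treated the following day by pin tool with a single drug or with five library-drug doses (not always all listed) in √10 steps on top of a fixed anchor-drug dose. Cells were fixed and nuclei stained in one step after 5 days, and nuclei were counted. Relative viability is the nuclei count for treated wells divided by that for vehicle wells, reported as medians of duplicate plates.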

[2] = compound: O=C(C[C@H]1NCCC[C@@H]1O)Cn1cnc2cc(Br)c(Cl)cc2c1=O (racemic) [Halofuginone] + Nc1nc2[nH]cc(CCc3ccc(C(=O)N[C@@H](CCC(=O)O)C(=O)O)cc3)c2c(=O)[nH]1 [Pemetrexed] (partner 0.2 µM)
Outline: as §1

[3] = compound: O=C(C[C@H]1NCCC[C@@H]1O)Cn1cnc2cc(Br)c(Cl)cc2c1=O (racemic) [Halofuginone] + CC(=O)c1c(C)c2cnc(Nc3ccc(N4CCNCC4)cn3)nc2n(C2CCCC2)c1=O [Palbociclib] (partner 0.5 µM)
Outline: as §1

[4] = compound: COc1cc2c(Oc3ccc4[nH]c(C)cc4c3F)ncnc2cc1OCCCN1CCCC1 [Cediranib] + Cc1nc(Nc2ncc(C(=O)Nc3c(C)cccc3Cl)s2)cc(N2CCN(CCO)CC2)n1 [Dasatinib] (partner 0.075 µM)
Outline: as §1

Cell Line	relative viability ([1]; first compound 0.04 µM)	relative viability ([1]; first compound 0.1265 µM)	relative viability ([1]; first compound 0.4 µM)	relative viability ([1]; first compound 1.265 µM)	relative viability ([1]; first compound 4 µM)	relative viability ([2]; first compound 0.001 µM)	relative viability ([2]; first compound 0.003162 µM)	relative viability ([2]; first compound 0.01 µM)	relative viability ([2]; first compound 0.03162 µM)	relative viability ([2]; first compound 0.1 µM)	relative viability ([3]; first compound 0.001 µM)	relative viability ([3]; first compound 0.003162 µM)	relative viability ([3]; first compound 0.01 µM)	relative viability ([3]; first compound 0.03162 µM)	relative viability ([3]; first compound 0.1 µM)	relative viability ([4]; first compound 0.04 µM)	relative viability ([4]; first compound 0.1265 µM)	relative viability ([4]; first compound 0.4 µM)	relative viability ([4]; first compound 1.265 µM)	relative viability ([4]; first compound 4 µM)
HCC-366	0.968	1.03	0.963	0.888	1.22	0.157	0.167	0.156	0.135	0.12	0.363	0.472	0.351	0.358	0.14	0.649	0.622	0.553	0.636	0.711
NCI-H2405	1.05	0.475	0.982	0.894	0.983	1.14	1.07	0.978	0.989	0.638	0.573	0.565	0.527	0.498	0.424	0.2	0.583	0.227	0.196	0.218
Calu-6	1.03	0.977	1.05	0.968	1.03	–	–	–	–	–	–	–	–	–	–	–	–	–	–	–
201T	1.16	1.19	1.09	1.05	1.09	0.31	0.329	0.346	0.311	0.313	0.369	0.185	0.381	0.367	0.351	0.622	0.67	0.628	0.575	0.582
CAL-12T	0.88	–	0.931	1.07	1.12	1.17	1.08	1.3	0.953	0.72	0.332	0.433	0.406	0.392	0.194	0.438	0.285	0.504	0.489	0.364
HCC-44	0.825	–	0.873	0.932	0.975	0.697	0.654	0.619	0.622	0.621	0.976	0.964	0.962	0.932	0.966	–	–	–	–	–
NCI-H358	–	–	–	–	–	0.171	0.167	0.167	0.154	0.138	0.142	0.127	0.141	0.129	0.0899	0.174	0.239	0.194	0.137	0.173
SW 900	–	–	–	–	–	0.483	0.505	–	0.432	0.445	0.626	0.483	–	0.622	0.215	0.629	0.669	0.594	0.654	0.524
NCI-H2087	0.849	0.739	0.775	0.722	0.697	0.673	0.657	0.686	0.709	0.489	0.254	0.22	0.189	0.22	0.2	0.872	0.953	0.801	0.944	0.905
COR-L 105	–	0.666	0.715	0.722	0.828	1.09	1.05	0.973	0.981	0.964	0.441	0.403	0.396	0.392	0.413	0.346	0.375	0.388	0.352	0.368
